Residue numbers refer to the chain shown, from its start. Like-named read-outs stand apart in the source and are kept apart here.
What was measured:
Type in all cases: binding
[1] = target: T1, TAF3 A902L (GST-tagged PHD) (Mus musculus, UniProt Q5HZG4, A902L); test: ITC of GST-tagged Taf3-PHD A902L
T1 construct: Mus musculus Taf3-PHD domain (residues 857–924); made in house; host or cells: E. coli BL21(DE3)
T1 sequence (Q5HZG4 857-924 A902L): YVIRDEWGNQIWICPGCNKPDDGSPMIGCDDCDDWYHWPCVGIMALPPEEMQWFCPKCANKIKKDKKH
Source text: (§1) The coding sequences of Mus musculus Taf3-PHD domain (residues 857–924) and Homosapiens PHF2 (1–66), PHF8 (37–102), and BPTF(2) (2865–2921) were cloned into the pGEX2T-derived vector, pRP265NB, for bacterial expression of GST-tagged proteins. Note that the PHD fingers of M. musculus Taf3 and H. sapiens TAF3 differ in a single amino acid. A901 in mouse corresponds to T899 in human. Here, amino acid numbering corresponds to mouse Taf3 isoform 1 with UniProt ID: Q5HZG4, accessible at https://www.uniprot.org/uniprotkb/Q5HZG4/entry. Single or double mutations were introduced by mutagenesis polymerase chain reaction and validated by Sanger sequencing. A single colony of freshly transformed BL21(DE3) Escherichia coli bacteria with the corresponding construct was grown in Luria broth (LB) medium supplemented with 50 μg/ml ampicillin until an OD600 of 0.7. […]
(§2) ITC experiments were performed at 20°C with a MicroCal VP-ITC microcalorimeter (Malvern) by sequential injection of 10 μl at 300 μM histone peptide during 20 s into the sample cell containing 30 or 15 μM of GST-Taf3 (wild type or mutant) or GST-BPTF, GST-PHF2, and GST-PHF8 PHDs in ITC buffer (100 mM NaCl, 20 mM Tris–HCl, pH 7.5). […] ITC data were subsequently analysed and fitted with the one-site binding model in the MicroCal ITC Origin Analysis software 7.0 (Table 1, Figs 3B and 5A, Supplementary Table S3, and Supplementary Fig. S10). […]

[2] = target: T2, TAF3 P881E W894F (GST-tagged PHD) (Mus musculus, UniProt Q5HZG4, P881E/W894F); test: ITC of GST-tagged Taf3-PHD P881E W894F
T2 construct: Mus musculus Taf3-PHD domain (residues 857–924); made in house; host or cells: E. coli BL21(DE3)
T2 sequence (Q5HZG4 857-924 P881E/W894F): T1 sequence (Q5HZG4 857-924 A902L) with P25E, W38F, L46A
Source text: as §1, §2

[3] = target: T3, PHF2 PHD (1–66, GST-tagged) (Homo sapiens, UniProt O75151); test: ITC of GST-tagged PHF2 PHD
T3 construct: PHF2 (1–66); made in house; host or cells: E. coli BL21(DE3)
T3 sequence (O75151 1-66): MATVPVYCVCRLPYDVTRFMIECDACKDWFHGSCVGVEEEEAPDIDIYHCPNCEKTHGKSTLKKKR
Source text: as §1, §2

[4] = ITC, 20°C, 100 mM NaCl, 20 mM Tris–HCl, pH 7.5, one-site model, ± = standard error of fit, read-out: K D

Kd [1, 4] [nM]	Kd [2, 4] [nM]	Kd [3, 4] [nM]	Structure (SMILES)	Kd [1] [nM]	Kd [2] [nM]	Kd [3] [nM]
			C[C@H](N)C(=O)N[C@@H](CCCNC(=N)N)C(=O)N[C@H](C(=O)N[C@@H](CCCC[N+](C)(C)C)C(=O)N[C@@H](CCC(=O)NCCc1c[nH]c2ccc(O)cc12)C(=O)N[C@H](C(=O)N[C@@H](C)C(=O)N[C@@H](CCCNC(=N)N)C(=O)N[C@@H](CCCCN)C(=O)N[C@@H](CO)C(=O)N[C@H](C(=O)NCC(N)=O)[C@@H](C)O)[C@@H](C)O)[C@@H](C)O [H3K4me3Q5ser]	51 ± 3	111 ± 14	201 ± 22
166 ± 17	123 ± 10	286 ± 23	C[C@H](N)C(=O)N[C@@H](CCCNC(=N)N)C(=O)N[C@H](C(=O)N[C@@H](CCCC[N+](C)(C)C)C(=O)N[C@@H](CCC(N)=O)C(=O)N[C@H](C(=O)N[C@@H](C)C(=O)N[C@@H](CCCNC(=N)N)C(=O)N[C@@H](CCCCN)C(=O)N[C@@H](CO)C(=O)N[C@H](C(=O)NCC(N)=O)[C@@H](C)O)[C@@H](C)O)[C@@H](C)O [H3K4me3]			

Source: PMC12238850, “Molecular determinants for recognition of serotonylated chromatin” (Nucleic Acids Research, 2025)
